Measurements taken from patent US5597824A, “Analogs of oxetanyl purines and pyrimidines” (Abbott Laboratories, priority 1992, dated 1997).
Values after ≈ are worked out from the molar mass of the structure shown.

What was measured:
[1] = test system: Human Cytomegalovirus (HCMV) strain AD169; experiment: Virus yield reduction assay, HCMV in MRC5 cells; type: cell-based
Method: Human diploid embryonic lung (MRC5) cells were grown in 35 mm wells of 6-well tissue culture plates. Subconfluent cell monolayers were rinsed with phosphate-buffered saline (PBS) and were exposed to 0.5 ml/well of HCMV (strain AD169) suspension for 1.5 hours at 37° C. The virus suspension was diluted in MEM+2% fetal bovine serum (FBS) to yield a multipicity of infection (MOI) of approximately 0.1 plaque forming units (PFU)/cell. Following the virus adsorption period, the inocula were removed and infected cell layers were rinsed with PBS. Aliquiots (2.0 ml) of each test drug concentration (dissolved in MEM supplemented with 2% FBS) were dispensed into triplicate cell cultures: two virus-infected cultures and one uninfected cytotoxicity control culture (exposed to medium without virus for 1.5 hours). Untreated virus-infected control cultutres and untreated, uninfected cell control cutures were fed with medium alone. The culture plates were incubated at 37° C. in a humidified atmosphere of 2% CO2 in air. All cell culture fluids were replaced with fresh drug and medium 48 hours postinfection (p.i.). On Day 6 p.i., the cell layers were examined microscopically for cytopathogenic effect (CPE) and drug cytotoxicity. The test and virus control cultures were then harvested by subjecting the cell layers to one cycle of freeze-thawing. The cellular material was scraped into the ambient medium and the contents from replicate cultures were pooled, dispensed into cryotubes and stored at -135° C. The harvested test and virus control samples were thawed and the infectious virus yield was determined by plaque assay in MRC5 cells grown in 12-well cluster plates. Inhibiton of HCMV replication by each test compound was determined by comparing the progeny virus yields in the drug-treated cultures with the progeny virus yeild in the untreated, virus-infected control cultures.

[2] = test system: Herpes simplex type 1 (HSV-1) strain E-377; experiment: CPE-inhibition assay, HSV-1 strain E-377 in Vero cells; type: cell-based, Herpes simplex virus type 1; conditions: HSV-1 (E-377), minimum cytotoxic concentration / ID50
Method: (§1) The challenge viruses were propagated and assayed in cells that were pregrown as monolayer cultures in plastic tissue culture flasks and 96-well plates, using cell culture media appropriate for the host cell cultures. The following viruses and host cell cultures were employed:
(§2) green monkey kidney (Vero)
(§3) On the day of use, a weighed sample of each compound to be evaluated was dissolved and diluted in serial 10^0.5 dilutions in the culture medium appropriate for each virus-host cell system.
Mammalian cells were pregrown as monolayers in wells of COSTAR 96-well tissue culture plates using suitable cell culture media. Stock viruses were pretitered according to the method of Reed and Muench (Amer. J. Hyg. 27:493-497, 1938) and diluted in cell culture medium to yield 32 CCID50 (cell culture infectious dose, 50%) units per 0.1 ml. Antiviral assays were designed to test seven concentrations of each compound, from cytotoxic to noncytotoxic levels, in triplicate against each of the challenge viruses in microtiter plate wells containing suitable cell monolayers. To each of the replicate cell cultures were added 0.1 ml of the test drug solution and 0.1 ml of virus suspension. Cell controls containing medium alone, virus controls containing medium and virus, and drug cytotoxicity controls containing medium and each drug concentration were run simultaneously with the test samples assayed in each experiment. […]
(§4) Antiviral activity was determined by calculating the degree of inhibition of virus-induced CPE in drug-treated, virus-infected cell cultures by means of a virus rating (VR). The VR is a standard weighted measurement of antiviral activity taking into account both the degree of CPE inhibition and drug cytotoxicity, and is determined by a modification of the method of Ehrlich et al. (Ann. N.Y. Acad. Sci. 130: 5-16, 1965) as described below. […]
(§5) The VR was calculated as 0.1 of the sum of the numerical differences between the recorded CPE grade of each test well and that of the corresponding virus control in the culture plate. […]

[3] = test system: Herpes simplex type 2 (HSV-2) strain MS; experiment: CPE-inhibition assay, HSV-2 strain MS in Vero cells; type: cell-based, Herpes simplex virus type 2; conditions: HSV-2 (MS), minimum cytotoxic concentration / ID50
Method: as §1, §2, §3
Mammalian cells were pregrown as monolayers in wells of COSTAR 96-well tissue culture plates using suitable cell culture media. […]
as §4, §5

Vero cells = experiment: Cell viability (MTT) of uninfected test-compound control wells; type: cell-based, African green monkey; conditions: cell viability reduced by 25%
Method: Vero cells were pregrown as monolayers in wells of COSTAR 96-well tisue culture plates using suitable cell culture media. Stock viruses were pretitered according to the method of Reed and Muench (Amer. J. Hyg. 27 493 (1938)) and diluted in cell culture medium to yield 32 CCID50 (cell culture infectious dose, 50%) units per 0.1 mL. Antiviral assays were designed to test six concentrations of each compound, from cytotoxic to noncytotoxic levels, in triplicate against each of the challenge viruses in microtiter plate wells containing cell monolayers. To each of the replicate cell cultures were added 0.1 mL of the test-compound solution and 0.1 mL of virus suspension. Two compounds were evaluated per plate. The following controls were included:
(3) Test-compound cytotoxicity controls containing uninfected, test-compound treated cells;
The covered plates were incubated at 37° C. in a humidified atmosphere containing 2% CO2. When cytopathogenic effect (CPE) in untreated virus control wells reached 100%, 20 μL of 3-(4,5-dimethyl-thiazol-2-yl)-2,5-diphenyl tetrazolium bromide (MTT) (dissolved in PBS at 5 mg/mL) was pipetted into each of the plate wells. The plates were incubated at 37° C. for six hours; then 40 μL of 30% SDS (in 0.02N HCl) was added to each well. After overnight incubation at 37° C. the blue color or the MTT formazan was measured spectrophotometrically at 570 nm. The optical density (OD) value of each culture is a function of the amount of formazan produced which is proportional to the number of viable cells. A computer program was utilized to calculate the percent (CPE) reciprocal of % CPE reduction) of the virus-infected wells and % cell viability of the uninfected test-compound control wells.
The IC50 value is the minimum test-compound concentration (μg/mL) that inhibited CPE by 50%, calculated by using a regression analysis program for semilog curve fitting. The TC25 value is the minimum test-compound concentration (μg/mL) that reduced cell viability by 25%.

Structure (SMILES): O=c1ccn([C@@H]2O[C@H](CO)[C@H]2CO)c(=O)[nH]1 [Example 23, 1-([2'R,3'R,4'S]-3',4'-Bis(hydroxmethyl)-2'-oxetanyl)uracil]
- HCMV yield ([1]; 3.2 μg/ml): 4.7 log10 PFU/ml
- HCMV yield ([1]; 10 μg/ml): 4.5 log10 PFU/ml
- HCMV yield ([1]; 32 μg/ml): 4.4 log10 PFU/ml
- HCMV yield ([1]; 100 μg/ml): 4.0 log10 PFU/ml
- HCMV yield ([1]; 320 μg/ml): 3.0 log10 PFU/ml
- TI (Therapeutic Index) [2]: 1.0

Structure (SMILES): Nc1ccn([C@@H]2O[C@H](CO)[C@H]2CO)c(=O)n1 [Example 22, 1-([2'R,3'R,4'S]-3',4'-Bis(hydroxmethyl)-2'-oxetanyl)cytosine]
- HCMV yield ([1]; 0.032 μg/ml): 3.8 log10 PFU/ml
- HCMV yield ([1]; 0.1 μg/ml): 3.1 log10 PFU/ml
- HCMV yield ([1]; 0.32 μg/ml): 2.6 log10 PFU/ml
- HCMV yield ([1]; 1.0 μg/ml): 0.4 log10 PFU/ml
- HCMV yield ([1]; 3.2 μg/ml): < 0.1 log10 PFU/ml
- HCMV yield ([1]; 10 μg/ml): < 0.1 log10 PFU/ml
- TI (Therapeutic Index) [3]: 9.7
- TI (Therapeutic Index) [2]: 13.1

Structure (SMILES): O=c1[nH]c(=O)n([C@@H]2O[C@H](CO)[C@H]2CO)cc1C=CI [Example 49, 1([2'R,3'R,4'S]-3',4'-n-Bis(hydroxmethyl)-2'-oxetanyl)-5-(2-iodo-1-vinyl)uracil]
- TC25 (Vero cells; HSV-1 (E-377) line): > 380 µg/mL

Structure (SMILES): O=c1[nH]c(=O)n([C@@H]2O[C@H](CO)[C@H]2CO)cc1I [Example 42, 1-([2'R, 3'R, 4'S]-3', 4'-Bis(hydroxmethyl)-2'-oxetanyl)-5-iodouracil]
- TC25 (Vero cells; HSV-1 (E-377) line): > 354 µg/mL
- TC25 (Vero cells; HSV-2 (MS) line): > 354 µg/mL

Structure (SMILES): C=Cc1cn([C@@H]2O[C@H](CO)[C@H]2CO)c(=O)[nH]c1=O [Example 61, 1-([2'R, 3'R, 4'S]-3',4'-Bis(hydroxmethyl)-2'-oxetanyl)-5-vinyluracil]
- TC25 (Vero cells; HSV-2 (MS) line): ≥ 254 µg/mL

Structure (SMILES): O=c1[nH]c(=O)n([C@@H]2O[C@H](CO)[C@H]2CO)cc1C=CBr [Example 44, 1-([2'R, 3'R, 4'S]-3', 4'-Bis(hydroxmethyl)-2'-oxetanyl)-5-(2-bromo-1-vinyl)uracil]
- TC25 (Vero cells; HSV-1 (E-377) line): 289 µg/mL (≈ 868 µM)

Structure (SMILES): Cc1cn([C@@H]2O[C@H](CO)[C@H]2CO)c(=O)[nH]c1=O [Example 21, 1-([2'R,3'R,4'S]-3',4'-Bis(hydroxmethyl)-2'-oxetanyl)5-methyluracil]
- TI (Therapeutic Index) [3]: > 7.2
- TI (Therapeutic Index) [2]: 1552

Structure (SMILES): O=c1[nH]c(=O)n([C@@H]2O[C@H](CO)[C@H]2CO)cc1Br [Example 43, 1-([2'R, 3'R, 4'S]-3', 4'-Bis(hydroxmethyl)-2'-oxetanyl)-5-bromouracil]
- TC25 (Vero cells; HSV-1 (E-377) line): 18.4 µg/mL (≈ 59.9 µM)
- TC25 (Vero cells; HSV-2 (MS) line): > 307 µg/mL

Structure (SMILES): O=c1[nH]c(=O)n([C@@H]2O[C@H](CO)[C@H]2CO)cc1C=CCl [Example 50, 1-([2'R,3'R,4'S]-3',4'-Bis(hydroxymethyl)-2'-oxetanyl)-5-(2-chloro-1-vinyl)uracil]
- TC25 (Vero cells; HSV-1 (E-377) line): > 289 µg/mL
